From ChEMBL document CHEMBL1133914, “Conformationally restricted indolopiperidine derivatives as potent CCR2B receptor antagonists” (Bioorg Med Chem Lett, 2001) come the findings set out here.

In general, Ki refers to the dissociation constant of the complex between target and ligand, obtained from inhibition or displacement. A higher Ki goes with weaker binding.

Values joined by “and” are separate entries in the source; they are usually repeats but may differ in a detail not shown here. Identical values can stand only once. Active and inactive are the calls of the source. The calls are words filed in the database; no cut-off is given here.

For experiment [1], the target named is T1, C-C chemokine receptor type 2 (Homo sapiens, UniProt P41597). In words: (§1) Inhibition of [125I]MCP-1 binding to the cloned C-C chemokine receptor type 2B expressed in CHO cells. The experiment is classed as cell-based.
Target sequence in this assay (P41597 whole entry): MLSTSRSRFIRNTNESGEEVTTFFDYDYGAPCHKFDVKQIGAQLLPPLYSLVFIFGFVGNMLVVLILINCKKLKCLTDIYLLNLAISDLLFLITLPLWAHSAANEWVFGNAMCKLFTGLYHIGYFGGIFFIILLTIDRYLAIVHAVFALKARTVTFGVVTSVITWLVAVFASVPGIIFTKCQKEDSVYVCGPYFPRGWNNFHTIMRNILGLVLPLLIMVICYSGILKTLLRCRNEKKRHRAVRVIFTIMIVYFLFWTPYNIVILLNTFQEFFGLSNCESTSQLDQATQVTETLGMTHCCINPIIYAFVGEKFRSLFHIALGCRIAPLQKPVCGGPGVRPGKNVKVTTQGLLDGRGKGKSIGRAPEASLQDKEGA
In experiment [2] the target is T1, C-C chemokine receptor type 2. The description is as §1. The experiment is classed as cell-based. This is another data set of the same source.
Target sequence in this assay (P41597 whole entry): as above
In experiment [3] the target is T2, 5-hydroxytryptamine receptor 1A (Homo sapiens) (UniProt P08908).
T2 sequence (whole entry): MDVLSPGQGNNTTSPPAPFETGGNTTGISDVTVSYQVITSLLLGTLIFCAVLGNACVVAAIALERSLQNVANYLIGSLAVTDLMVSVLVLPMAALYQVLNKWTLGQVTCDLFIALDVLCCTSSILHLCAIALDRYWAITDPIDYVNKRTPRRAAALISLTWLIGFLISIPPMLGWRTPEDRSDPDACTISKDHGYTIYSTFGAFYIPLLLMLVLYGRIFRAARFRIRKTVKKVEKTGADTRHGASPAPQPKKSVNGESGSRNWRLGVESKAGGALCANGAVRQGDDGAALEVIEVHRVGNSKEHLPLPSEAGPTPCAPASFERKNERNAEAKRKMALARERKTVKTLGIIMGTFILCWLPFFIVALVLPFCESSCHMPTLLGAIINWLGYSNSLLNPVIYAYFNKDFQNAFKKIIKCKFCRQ
In words: Binding affinity relative to indolopiperidine (compound 1) for 5-hydroxytryptamine 1A receptor was determined.

Experiment [4] concerns the target T3, 5-hydroxytryptamine receptor 6 (Homo sapiens, UniProt P50406). In words: Binding affinity relative to indolopiperidine (compound 1) for 5-hydroxytryptamine 6 receptor was determined.
Experiment [5] addresses T4, 5-hydroxytryptamine receptor 7 (Homo sapiens, UniProt P34969). In words: (§2) Binding affinity relative to indolopiperidine (compound 1) for 5-hydroxytryptamine 7 receptor was determined.
Experiment [6] has as its target T5, 5-hydroxytryptamine receptor 2A (Homo sapiens, UniProt P28223). In words: Binding affinity relative to indolopiperidine (compound 1) for 5-hydroxytryptamine 2A receptor was determined.
Experiment [7] deals with T6, D(2) dopamine receptor (Homo sapiens, UniProt P14416). In words: (§3) Binding affinity relative to indolopiperidine (compound 1) for Dopamine receptor D2 was determined.
T6 sequence (P14416 whole entry): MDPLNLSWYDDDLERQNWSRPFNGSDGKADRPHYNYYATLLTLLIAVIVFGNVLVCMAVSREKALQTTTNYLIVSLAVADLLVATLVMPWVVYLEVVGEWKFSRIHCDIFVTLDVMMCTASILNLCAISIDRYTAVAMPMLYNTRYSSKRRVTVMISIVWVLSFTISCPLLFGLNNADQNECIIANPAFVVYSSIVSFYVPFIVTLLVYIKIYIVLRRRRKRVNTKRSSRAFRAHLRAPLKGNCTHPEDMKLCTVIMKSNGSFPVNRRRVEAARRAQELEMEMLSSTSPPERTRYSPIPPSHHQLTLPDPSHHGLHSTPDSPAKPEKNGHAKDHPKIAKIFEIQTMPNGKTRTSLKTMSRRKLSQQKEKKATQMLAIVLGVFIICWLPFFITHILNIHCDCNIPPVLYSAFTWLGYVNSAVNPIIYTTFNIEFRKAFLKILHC
For experiment [8], the target named is T7, 5-hydroxytryptamine receptor 1E (Homo sapiens, UniProt P28566). In words: Binding affinity relative to indolopiperidine (compound 1) for 5-hydroxytryptamine 1E receptor was determined.
T7 sequence (P28566 whole entry): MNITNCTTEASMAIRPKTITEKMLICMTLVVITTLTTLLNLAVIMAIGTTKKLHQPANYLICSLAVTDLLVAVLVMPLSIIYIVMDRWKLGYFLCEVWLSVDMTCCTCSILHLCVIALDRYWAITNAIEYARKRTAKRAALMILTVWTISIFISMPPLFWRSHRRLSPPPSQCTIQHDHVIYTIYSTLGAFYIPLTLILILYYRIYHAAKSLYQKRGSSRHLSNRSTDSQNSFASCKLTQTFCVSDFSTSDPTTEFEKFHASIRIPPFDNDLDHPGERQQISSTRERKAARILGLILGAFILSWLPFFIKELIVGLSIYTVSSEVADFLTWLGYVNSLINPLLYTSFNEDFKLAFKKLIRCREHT
In experiment [9] the target is T8, 5-hydroxytryptamine receptor 2B (Homo sapiens, UniProt P41595). In words: Binding affinity relative to indolopiperidine (compound 1) for 5-hydroxytryptamine 2B receptor was determined.
T8 sequence (P41595 whole entry): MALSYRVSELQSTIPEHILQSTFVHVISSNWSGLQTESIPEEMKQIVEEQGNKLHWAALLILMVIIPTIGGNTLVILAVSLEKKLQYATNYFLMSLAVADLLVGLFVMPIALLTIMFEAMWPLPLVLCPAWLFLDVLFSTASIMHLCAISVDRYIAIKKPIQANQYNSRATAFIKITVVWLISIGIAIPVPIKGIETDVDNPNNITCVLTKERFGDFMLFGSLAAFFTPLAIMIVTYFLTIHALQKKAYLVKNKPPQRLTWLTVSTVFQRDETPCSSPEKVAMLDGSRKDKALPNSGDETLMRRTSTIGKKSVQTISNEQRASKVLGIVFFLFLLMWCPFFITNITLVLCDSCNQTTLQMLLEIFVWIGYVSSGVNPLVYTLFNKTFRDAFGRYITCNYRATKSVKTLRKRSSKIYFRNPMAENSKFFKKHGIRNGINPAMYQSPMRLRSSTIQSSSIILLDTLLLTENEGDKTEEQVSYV
Experiment [10] concerns the target T9, D(3) dopamine receptor (Homo sapiens, UniProt P35462). In words: (§4) Binding affinity relative to indolopiperidine (compound 1) for Dopamine receptor D3 was determined.
The target of experiment [11] is T1, C-C chemokine receptor type 2.
Target sequence in this assay (P41597 whole entry, looked up): as the sequence (P41597 whole entry) above
For experiment [12], the target named is T10, 5-hydroxytryptamine receptor 1F (Homo sapiens) (UniProt P30939).
T10 sequence (whole entry): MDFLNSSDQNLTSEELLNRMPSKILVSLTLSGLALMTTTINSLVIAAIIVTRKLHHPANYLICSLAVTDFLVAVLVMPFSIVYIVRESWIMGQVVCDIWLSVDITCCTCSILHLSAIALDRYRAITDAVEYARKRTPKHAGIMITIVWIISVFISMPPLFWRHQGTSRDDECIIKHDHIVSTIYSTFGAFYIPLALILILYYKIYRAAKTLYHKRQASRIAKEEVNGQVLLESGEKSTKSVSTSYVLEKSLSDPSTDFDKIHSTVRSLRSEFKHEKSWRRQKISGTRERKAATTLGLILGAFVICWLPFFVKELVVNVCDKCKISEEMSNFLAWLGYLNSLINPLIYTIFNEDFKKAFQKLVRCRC
In words: Binding affinity relative to indolopiperidine (compound 1) for 5-hydroxytryptamine 1F receptor was determined.

The target in experiment [13] is T11, 5-hydroxytryptamine receptor 1B (Homo sapiens, UniProt P28222). In words: Binding affinity relative to indolopiperidine (compound 1) for 5-hydroxytryptamine 1B receptor was determined.
T11 sequence (P28222 whole entry): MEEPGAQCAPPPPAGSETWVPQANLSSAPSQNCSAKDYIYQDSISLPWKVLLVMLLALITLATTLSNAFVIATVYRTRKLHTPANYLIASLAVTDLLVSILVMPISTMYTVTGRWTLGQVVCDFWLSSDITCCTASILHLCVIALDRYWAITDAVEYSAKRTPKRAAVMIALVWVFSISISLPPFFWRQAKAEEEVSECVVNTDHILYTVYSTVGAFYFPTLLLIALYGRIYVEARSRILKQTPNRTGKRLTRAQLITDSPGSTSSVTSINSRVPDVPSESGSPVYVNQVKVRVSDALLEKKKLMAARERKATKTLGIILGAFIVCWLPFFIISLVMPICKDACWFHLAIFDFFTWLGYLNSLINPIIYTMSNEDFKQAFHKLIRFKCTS
Experiment [14] concerns the target T12, 5-hydroxytryptamine receptor 2C (Homo sapiens) (UniProt P28335).
T12 sequence (whole entry): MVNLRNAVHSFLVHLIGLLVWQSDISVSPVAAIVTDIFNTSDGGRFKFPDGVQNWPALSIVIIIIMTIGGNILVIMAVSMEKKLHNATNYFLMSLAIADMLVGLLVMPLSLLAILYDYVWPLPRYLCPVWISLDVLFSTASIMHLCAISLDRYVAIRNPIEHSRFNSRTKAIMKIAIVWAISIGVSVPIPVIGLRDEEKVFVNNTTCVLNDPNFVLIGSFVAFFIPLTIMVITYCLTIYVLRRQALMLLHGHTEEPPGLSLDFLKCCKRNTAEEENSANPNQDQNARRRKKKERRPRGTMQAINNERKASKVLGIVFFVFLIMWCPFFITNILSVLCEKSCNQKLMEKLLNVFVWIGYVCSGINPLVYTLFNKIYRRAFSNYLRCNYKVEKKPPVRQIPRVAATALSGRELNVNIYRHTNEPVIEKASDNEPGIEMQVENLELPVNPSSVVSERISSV
In words: Binding affinity relative to indolopiperidine (compound 1) for 5-hydroxytryptamine 2C receptor was determined.

Experiment [15] deals with T1, C-C chemokine receptor type 2. The description is as §1. The experiment is classed as cell-based. The source holds these as a separate data set.
Target sequence in this assay (P41597 whole entry): as the sequence (P41597 whole entry) above
Experiment [16] deals with T5, 5-hydroxytryptamine receptor 2A. In words: Binding affinity relative to indolopiperidine (compound 1)for 5-hydroxytryptamine 2A receptor was determined.
In experiment [17] the target is T1, C-C chemokine receptor type 2. In words: Binding affinity relative to indolopiperidine (compound 1) for C-C chemokine receptor type 2B was determined.
Target sequence in this assay (P41597 whole entry, looked up): as the sequence (P41597 whole entry) above
The target is the same in experiment [18]. In words: Inhibition of [125I]MCP-1 binding to the cloned C-C chemokine receptor type 2B expressed in CHO cells; IA means inactive. The experiment is classed as cell-based.
Target sequence in this assay (P41597 whole entry, looked up): as the sequence (P41597 whole entry) above
Experiment [19] addresses T13, 5-hydroxytryptamine receptor 2C (Homo sapiens, UniProt P28335).
T13 sequence (P28335 whole entry): T12 sequence (whole entry)
In words: Binding affinity for 5-hydroxytryptamine 2C receptor was determined.

Experiment [20] addresses T4, 5-hydroxytryptamine receptor 7. In words: Binding affinity for 5-hydroxytryptamine 7 receptor was determined.
Experiment [21] concerns the target T14, 5-hydroxytryptamine receptor 1F (Homo sapiens, UniProt P30939).
T14 sequence (P30939 whole entry): T10 sequence (whole entry)
In words: Binding affinity for 5-hydroxytryptamine 1F receptor was determined.

In experiment [22] the target is T3, 5-hydroxytryptamine receptor 6. In words: Binding affinity for 5-hydroxytryptamine 6 receptor was determined.
The target in experiment [23] is T8, 5-hydroxytryptamine receptor 2B. In words: Binding affinity for 5-hydroxytryptamine 2B receptor was determined.
For experiment [24], the target named is T5, 5-hydroxytryptamine receptor 2A. In words: Binding affinity for 5-hydroxytryptamine 2A receptor was determined.
Experiment [25] concerns the target T9, D(3) dopamine receptor. In words: Binding affinity for Dopamine receptor D3 was determined.
The target of experiment [26] is T7, 5-hydroxytryptamine receptor 1E. In words: Binding affinity for 5-hydroxytryptamine 1E receptor was determined.
For experiment [27], the target named is T15, 5-hydroxytryptamine receptor 1A (Homo sapiens, UniProt P08908).
T15 sequence (P08908 whole entry): T2 sequence (whole entry)
In words: Binding affinity for 5-hydroxytryptamine 1A receptor was determined.

The target of experiment [28] is T11, 5-hydroxytryptamine receptor 1B. In words: Binding affinity for 5-hydroxytryptamine 1B receptor was determined.
In experiment [29] the target is T6, D(2) dopamine receptor. In words: Binding affinity for Dopamine receptor D2 was determined.
For experiment [30], the target named is T9, D(3) dopamine receptor. Described as §4. The source holds these as a separate data set.
Experiment [31] addresses T1, C-C chemokine receptor type 2. In words: Binding affinity relative to indolopiperidine (compound 1) forC-C chemokine receptor type 2B was determined.
Target sequence in this assay (P41597 whole entry, looked up): as the sequence (P41597 whole entry) above
Experiment [32] has as its target T6, D(2) dopamine receptor. The experiment is described as §3. This is another data set of the same source.
Experiment [33] deals with T1, C-C chemokine receptor type 2. In words: Binding affinity for C-C chemokine receptor type 2B was determined.
Target sequence in this assay (P41597 whole entry): as above
Experiment [34] addresses T4, 5-hydroxytryptamine receptor 7. Described as §2. The source holds these as a separate data set.
The target in experiment [35] is T1, C-C chemokine receptor type 2. In words: Inhibition of [125I]MCP-1 binding to the cloned C-C chemokine receptor type 2B expressed in CHO cells; IA mean inactive. The class given is cell-based.
Target sequence in this assay (P41597 whole entry, looked up): as the sequence (P41597 whole entry) above

T3 sequence (P50406 whole entry): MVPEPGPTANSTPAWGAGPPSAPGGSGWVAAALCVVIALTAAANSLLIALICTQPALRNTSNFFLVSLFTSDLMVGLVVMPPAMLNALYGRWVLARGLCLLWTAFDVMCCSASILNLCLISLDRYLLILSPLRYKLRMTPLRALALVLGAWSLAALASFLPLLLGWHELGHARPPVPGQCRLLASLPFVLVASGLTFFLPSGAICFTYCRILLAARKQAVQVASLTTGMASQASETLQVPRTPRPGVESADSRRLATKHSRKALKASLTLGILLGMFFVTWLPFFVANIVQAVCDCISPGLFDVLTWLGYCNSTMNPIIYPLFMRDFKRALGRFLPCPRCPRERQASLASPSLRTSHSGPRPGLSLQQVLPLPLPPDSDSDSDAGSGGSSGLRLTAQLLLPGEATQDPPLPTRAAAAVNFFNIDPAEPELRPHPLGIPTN
T4 sequence (P34969 whole entry): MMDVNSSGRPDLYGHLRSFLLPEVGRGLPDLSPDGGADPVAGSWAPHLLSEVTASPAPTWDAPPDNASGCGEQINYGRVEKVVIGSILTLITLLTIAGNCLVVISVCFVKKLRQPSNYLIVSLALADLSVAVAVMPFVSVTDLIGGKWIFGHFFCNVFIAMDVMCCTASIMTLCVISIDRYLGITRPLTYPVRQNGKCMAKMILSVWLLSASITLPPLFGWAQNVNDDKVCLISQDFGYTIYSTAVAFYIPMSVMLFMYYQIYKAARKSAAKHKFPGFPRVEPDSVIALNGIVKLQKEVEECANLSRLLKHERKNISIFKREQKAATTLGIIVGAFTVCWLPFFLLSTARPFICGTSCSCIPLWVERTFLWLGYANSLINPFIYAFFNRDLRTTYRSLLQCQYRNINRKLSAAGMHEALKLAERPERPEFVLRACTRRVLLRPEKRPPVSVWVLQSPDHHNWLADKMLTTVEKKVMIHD
T5 sequence (P28223 whole entry): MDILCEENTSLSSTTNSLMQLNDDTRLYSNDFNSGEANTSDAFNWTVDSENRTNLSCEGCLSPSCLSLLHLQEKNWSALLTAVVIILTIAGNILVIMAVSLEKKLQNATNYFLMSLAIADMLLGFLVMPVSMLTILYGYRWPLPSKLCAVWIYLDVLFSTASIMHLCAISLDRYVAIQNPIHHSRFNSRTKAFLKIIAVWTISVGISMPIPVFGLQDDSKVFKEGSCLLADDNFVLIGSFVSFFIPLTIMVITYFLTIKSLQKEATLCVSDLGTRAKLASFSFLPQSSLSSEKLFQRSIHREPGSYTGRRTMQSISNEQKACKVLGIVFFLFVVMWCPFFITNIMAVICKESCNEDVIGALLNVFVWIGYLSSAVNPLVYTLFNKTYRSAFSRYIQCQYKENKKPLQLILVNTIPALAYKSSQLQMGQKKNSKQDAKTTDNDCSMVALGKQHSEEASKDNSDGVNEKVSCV
T9 sequence (P35462 whole entry): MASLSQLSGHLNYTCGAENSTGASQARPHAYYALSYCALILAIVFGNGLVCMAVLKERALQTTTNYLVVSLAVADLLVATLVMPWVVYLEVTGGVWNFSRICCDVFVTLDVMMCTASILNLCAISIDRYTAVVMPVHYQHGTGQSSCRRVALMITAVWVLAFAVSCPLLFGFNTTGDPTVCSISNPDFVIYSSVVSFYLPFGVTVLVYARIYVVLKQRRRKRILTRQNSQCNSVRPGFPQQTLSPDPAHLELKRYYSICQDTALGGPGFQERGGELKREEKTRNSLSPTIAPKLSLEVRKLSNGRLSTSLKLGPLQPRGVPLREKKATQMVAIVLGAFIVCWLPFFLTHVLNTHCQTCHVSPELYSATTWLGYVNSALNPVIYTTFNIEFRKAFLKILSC

Consider `O=C(/C=C/c1ccc(Cl)c(Cl)c1)NCCCCCN1[C@@H]2CC[C@H]1CC(c1c[nH]c3ccc(O)cc13)C2` (stereo in doubt) [listing 1 of 2 here], for which the Ki in experiment [1] and in experiment [2] was 251 nM in each case.

Consider `O=C(/C=C/c1ccc(Cl)c(Cl)c1)NCCCCCN1[C@@H]2CC[C@H]1CC(c1c[nH]c3ccc(O)cc13)C2` (stereo in doubt) [listing 2 of 2 here], for which the Delta pKi in [3] is -1.1; in experiment [4], -0.9; in experiment [5], -1.5; in experiment [6], -0.9; at D(2) dopamine receptor [7], -1.7; in [8] it was -3.2. Besides, the Delta pKi is -1.5 in experiment [9]; -1.4 at D(3) dopamine receptor [10]; -0.7 in experiment [11]; -2.7 in [12]; -1.6 in [13]; -0.5 in experiment [14].

As for `O=C(/C=C/c1ccc(Cl)c(Cl)c1)N[C@H]1CC[C@@H](CN2CCC(c3c[nH]c4ccc(O)cc34)CC2)CC1`, the Delta pKi is -0.7 in experiment [3]; -0.9 in [4]; -0.4 in experiment [5]; -0.8 on D(2) dopamine receptor [7]; -1.4 in experiment [8]; -0.5 in experiment [9]. For the same compound, the Delta pKi in [16] was -0.1; at D(3) dopamine receptor [10] it was -0.9; in experiment [17], -0.2; in [12] it was -2.6; in experiment [13] it was -1.2; in [14] it was -0.4. Also, the Ki in experiment [15] was 79 nM and 126 nM; in experiment [2] it was 79.4 nM.

Consider `O=C(/C=C/c1ccc(Cl)c(Cl)c1)Nc1ccc(CN2CCC(c3c[nH]c4ccccc34)CC2)cc1`, for which the “Log Ki” value in [18] is “inactive”.

`O=C(/C=C/c1ccc(Cl)c(Cl)c1)N[C@H]1CC[C@@H](CN2CCC(c3c[nH]c4ccccc34)CC2)CC1`: affinity in experiment [1] was put at a Ki of 126 nM.

On to `O=C(/C=C/c1ccc(Cl)c(Cl)c1)NCCCCCN1[C@@H]2CC[C@H]1CC(c1c[nH]c3ccc(O)cc13)C2` (single isomer, unassigned), for which the results for the Ki in [15] and in experiment [2] were 630 nM and 631 nM, respectively.

With `O=C(/C=C/c1ccc(Cl)c(Cl)c1)NCCCCCN1CCC(c2c[nH]c3ccc(O)cc23)CC1`, the Ki is 79.4 nM in [19]; 63.1 nM in experiment [20]; 3.16 nM in experiment [21]; 79.4 nM in experiment [22]; 25.1 nM in experiment [23]; 20 nM in experiment [24]. Further, the Ki was 7.94 nM on D(3) dopamine receptor [25]; 6.31 nM in experiment [26]; 100 nM in experiment [27]; 12.6 nM in experiment [28]; 15.8 nM on D(2) dopamine receptor [29].

As for `O=C(/C=C/c1ccc(Cl)c(Cl)c1)N[C@H]1CC[C@@H](CN2[C@@H]3CC[C@H]2C[C@H](c2c[nH]c4ccc(O)cc24)C3)CC1`, the Ki in experiment [19] is greater than 3160 nM; at D(3) dopamine receptor [30] it was 2510 nM; in experiment [21], greater than 3160 nM; in experiment [22] it was 2000 nM; in [23], 501 nM; in [24], greater than 20000 nM. Moreover, the Ki in experiment [26] was greater than 6310 nM; in experiment [27] it was 7940 nM; in experiment [28] it was 1000 nM; on D(2) dopamine receptor [32], 1260 nM; in experiment [2], 39.8 nM; in experiment [33] it was 40 nM. The Delta pKi in experiment [3] was -1.9; in experiment [4], -1.4; in experiment [5] it was greater than -1.9; in experiment [31], 0.1; in [6] it was -3; on D(2) dopamine receptor [7], -1.9. The Delta pKi in experiment [8] is greater than -3.2; in experiment [9], -1.3; on D(3) dopamine receptor [10] it was -2.5; in experiment [12], greater than -3; in [13], -1.9; in experiment [14] it was greater than -1.6. Besides, the “Log Ki” value in experiment [34] is reported as less than -6.1.

Take `O=C(/C=C/c1ccc(Cl)c(Cl)c1)NCc1cccc(CN2CCC(c3c[nH]c4ccccc34)CC2)c1`: the “Log Ki” value in experiment [35] was “inactive”.
